Test results as given in PubChem BioAssay (NCI).
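These data come from cells grown in 96-well plates and exposed to compound for 48 hours at five concentrations. TGI is the concentration that stops growth completely.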

Key:
Assay in all cases: DTP human tumour cell line panel, 48 h
A498 renal = tested on: A498 renal
DMS 273 small cell lung = tested on: DMS 273 small cell lung
EKVX NSCLC = tested on: EKVX NSCLC
HCT-116 colon = tested on: HCT-116 colon
KM12 colon = tested on: KM12 colon
NCI-H226 lung = tested on: NCI-H226 lung
OVCAR-8 ovarian = tested on: OVCAR-8 ovarian
SF-539 CNS = tested on: SF-539 CNS
SK-MEL-5 melanoma = tested on: SK-MEL-5 melanoma
SNB-19 CNS = tested on: SNB-19 CNS
U251 CNS = tested on: U251 CNS
UACC-62 melanoma = tested on: UACC-62 melanoma
HOP-92 NSCLC = tested on: HOP-92 NSCLC
NCI-H23 lung = tested on: NCI-H23 lung
OVCAR-4 ovarian = tested on: OVCAR-4 ovarian
MCF7 breast = tested on: MCF7 breast
MDA-MB-231 breast = tested on: MDA-MB-231 breast
MDA-MB-435 = tested on: MDA-MB-435
MDA-N = tested on: MDA-N
NCI/ADR-RES ovarian = tested on: NCI/ADR-RES ovarian

| SMILES | TGI (A498 renal) | TGI (DMS 273 small cell lung) | TGI (EKVX NSCLC) | TGI (HCT-116 colon) | TGI (KM12 colon) | TGI (NCI-H226 lung) | TGI (OVCAR-8 ovarian) | TGI (SF-539 CNS) | TGI (SK-MEL-5 melanoma) | TGI (SNB-19 CNS) | TGI (U251 CNS) | TGI (UACC-62 melanoma) | TGI (HOP-92 NSCLC) | TGI (NCI-H23 lung) | TGI (OVCAR-4 ovarian) | TGI (MCF7 breast) | TGI (MDA-MB-231 breast) | TGI (MDA-MB-435) | TGI (MDA-N) | TGI (NCI/ADR-RES ovarian) |
| --- | --- | --- | --- | --- | --- | --- | --- | --- | --- | --- | --- | --- | --- | --- | --- | --- | --- | --- | --- | --- |
| Cc1nc2nn(Cc3ccccc3)cc2c(=O)o1 | > 100 µM | > 100 µM | > 100 µM | > 100 µM | > 100 µM | > 100 µM | > 100 µM | > 100 µM | > 100 µM | > 100 µM | > 100 µM | > 100 µM |  |  |  |  |  |  |  |  |
| c1ccc(CCCC2Sc3cccc4cccc(c34)S2)cc1 |  | > 100 µM | > 100 µM | > 100 µM | > 100 µM | > 100 µM | > 100 µM | > 100 µM | > 100 µM | > 100 µM | > 100 µM | > 100 µM | > 100 µM | > 100 µM | > 100 µM |  |  |  |  |  |
| Nc1ccc2ncc(Nc3ccc(F)cc3)nc2c1 |  | > 100 µM | > 100 µM | > 100 µM | > 100 µM | > 100 µM | > 100 µM | > 100 µM | > 100 µM | > 100 µM | > 100 µM |  |  | > 100 µM | > 100 µM |  |  |  |  |  |
| Cc1ccc(C(=O)OC(C)C)cc1N=NN(C)C |  | > 100 µM | > 100 µM | > 100 µM | > 100 µM |  | > 100 µM | > 100 µM | > 100 µM | > 100 µM | > 100 µM | > 100 µM | > 100 µM | > 100 µM | > 100 µM | > 100 µM | > 100 µM | > 100 µM | > 100 µM | > 100 µM |
| CN/C=C(/c1ccc(OC)cc1)C(O)c1ccc(OC)c(OC)c1 (configuration not stated) | > 100 µM | > 100 µM | > 100 µM | > 100 µM | > 100 µM | > 100 µM | > 100 µM | > 100 µM | > 100 µM | > 100 µM | > 100 µM | > 100 µM | > 100 µM | > 100 µM | > 100 µM |  |  |  |  |  |
| O=C(CSc1nnc(Cc2ccccc2)o1)Nc1ccccc1Cl | > 100 µM | > 100 µM |  | > 100 µM | > 100 µM | > 100 µM | > 100 µM | > 100 µM | > 100 µM | > 100 µM | > 100 µM | > 100 µM |  | > 100 µM | > 100 µM |  |  |  |  |  |
| COc1cc2c(cc1O)[C@H](C)C(c1ccccc1OC)O2 (some centres not stated) | 56 µM | > 100 µM | > 100 µM | 15.4 µM | > 100 µM | 72.3 µM | 57.8 µM | 41.5 µM | 19.7 µM | > 100 µM | 8.01 µM | > 100 µM | 62.8 µM | > 100 µM | 60.2 µM |  |  |  |  |  |
| COc1ccc([C@@H]2CC(=O)NCCCNCCCCNCCCN2)cc1 | > 100 µM | > 100 µM | > 100 µM | > 100 µM | > 100 µM | > 100 µM | > 100 µM | > 100 µM | > 100 µM | > 100 µM | > 100 µM | > 100 µM | > 100 µM | > 100 µM | > 100 µM |  |  |  |  |  |
| Nc1ccc(C(=O)NN2C(=O)C(Cl)C2c2cc(Br)cc(Br)c2O)cc1 (configuration not stated) |  | > 100 µM | 59.5 µM | > 100 µM | > 100 µM | 45.8 µM | > 100 µM | 57 µM | 65.5 µM | > 100 µM | > 100 µM | 24.8 µM | > 100 µM | 58 µM | > 100 µM |  |  |  |  |  |
| Cc1cc(Cl)ccc1NC(=O)C(=O)Cc1ccc([N+](=O)[O-])c([N+](=O)[O-])c1CC(=O)C(=O)Nc1ccc(Cl)cc1C | > 100 µM | > 100 µM | > 100 µM | > 100 µM | > 100 µM | > 100 µM | > 100 µM | > 100 µM | > 100 µM | > 100 µM | > 100 µM | > 100 µM | > 100 µM | > 100 µM | > 100 µM |  |  |  |  |  |
| O=[N+]([O-])c1cc2c(cc1O)[nH]c1cccc([N+](=O)[O-])c12 |  | > 100 µM |  | > 100 µM | > 100 µM | > 100 µM | > 100 µM | > 100 µM | > 100 µM | > 100 µM |  |  |  | > 100 µM | > 100 µM |  |  |  |  |  |
| N#CC(c1ccccc1)N(CCc1ccccc1)C(=O)c1ccccc1 (configuration not stated) | > 100 µM |  | > 100 µM | > 100 µM | > 100 µM | > 100 µM | > 100 µM | > 84.7 µM | > 100 µM | > 81 µM | > 100 µM | > 100 µM | 59.7 µM | > 100 µM | > 100 µM | > 100 µM | > 100 µM | > 100 µM | > 100 µM | > 100 µM |
| CC1=C(C(=O)NNC(=O)C(N)=O)CC(C(=O)NNC(=O)C(N)=O)=C(C)N1 | > 100 µM |  | > 100 µM | > 100 µM | > 100 µM | > 100 µM | > 100 µM | > 100 µM | > 100 µM | > 100 µM | > 100 µM | > 100 µM | > 100 µM | > 100 µM | > 100 µM | > 100 µM | > 100 µM | > 100 µM | > 100 µM | > 100 µM |
| COc1cc(C(C#N)NNC(=O)Cc2ccccc2)cc(OC)c1OC (configuration not stated) |  | > 100 µM |  | > 100 µM | > 100 µM | > 100 µM | > 100 µM | > 100 µM | > 100 µM |  | > 100 µM | > 100 µM | > 100 µM | > 100 µM | > 100 µM |  |  |  |  |  |
| CC(=O)c1cccc(Nc2c3ccccc3nc3occc23)c1 | 74.7 µM |  | > 100 µM | 18.4 µM | 52.6 µM | > 100 µM | > 100 µM | 7.63 µM | 23 µM | > 100 µM | > 100 µM | 27.7 µM | 62.2 µM | 18.2 µM | 6.67 µM | > 100 µM | 67.7 µM | 2.85 µM | > 100 µM | 6.47 µM |
